# According to patent publication US20190255091A1, “RNAi AGENTS FOR [sequence] B VIRUS INFECTION” (priority 2016, published 2019):
# System: Hepatitis B Virus (HBV)
# Assay: Serum HBsAg levels in pHBV model mice (ELISA)
# Assay type: in vivo
# Set-up: key to Average HBsAg levels normalized to pre-treatment (day −1) and PBS control / Average HBsAg levels normalized to pre-treatment and PBS control: fraction of pre-treatment level, relative to PBS control mean
# Settings: for Average HBsAg levels normalized to pre-treatment (day −1) and PBS control: single s.c. injection day 1, Example 7; for Average HBsAg normalized to pre-treatment and PBS control: single s.c. injection on day 1; for Average HBsAg levels normalized to pre-treatment and PBS control (Group A used as control): 3.0 mg/kg, s.c. injection on day 1 and day 22, Example 10
# Description: Six to eight-week-old female NOD.CB17-Prkdscid/NcrCrl (NOD-SCID) mice were transiently transfected in vivo with MC-HBV1.3 by hydrodynamic tail vein injection (Yang P L et al. “Hydrodynamic injection of viral DNA: a mouse model of acute hepatitis B virus infection,” PNAS USA 2002 Vol. 99: p. 13825-13830), administered 30 to 45 days prior to administration of an HBV RNAi agent or control. MC-HBV1.3 is a plasmid-derived minicircle that contains the same terminally redundant human hepatitis B virus sequence HBV1.3 as in plasmid pHBV1.3 and in the HBV1.3.32 transgenic mice (GenBank accession #V01460) (Guidotti L G et al., “High-level hepatitis B virus replication in transgenic mice,” J Virol 1995 Vol. 69, p 6158-6169.). 5 or 10 μg MC-HBV1.3 in Ringer's Solution in a total volume of 10% of the animal's body weight was injected into mice via tail vein to create pHBV model of chronic HBV infection. The solution was injected through a 27-gauge needle in 5-7 seconds as previously described (Zhang G et al., “High levels of foreign gene expression in hepatocytes after tail vein injection of naked plasmid DNA.” Human Gene Therapy 1999 Vol. 10, p 1735-1737.). At pre-dose (either day 1 pre-dose, day −1, or day −2), Hepatitis B surface antigen (HBsAg) HBsAg expression levels in serum were measured by ELISA and the mice were grouped according to average HBsAg expression levels.
# HBV expression levels were normalized to pre-administration expression levels and to control mice injected with phosphate buffered saline (“PBS”).
# Mice were anesthetized with 2-3% isoflurane and blood samples were collected from the submandibular area into serum separation tubes (Sarstedt AG & Co., Nümbrecht, Germany). Blood was allowed to coagulate at ambient temperature for 20 min. The tubes were centrifuged at 8,000×g for 3 min to separate the serum and stored at 4° C.
# Serum was collected and diluted 10 to 8000-fold in PBS containing 5% nonfat dry milk. […] HBsAg levels were determined with a GS HBsAg EIA 3.0 kit (Bio-Rad Laboratories, Inc., Redmond, Wash.) as described by the manufacturer. Recombinant HBsAg protein, ayw subtype, also diluted in nonfat milk in PBS, was used as a primary standard (Aldevron).
# HBsAg expression for each animal was normalized to the control group of mice injected with PBS in order to account for the non-treatment related decline in expression of MC-HBV1.3. First, the HBsAg level for each animal at a time point was divided by the pre-treatment level of expression in that animal in order to determine the ratio of expression “normalized to pre-treatment”. Expression at a specific time point was then normalized to the control group by dividing the “normalized to pre-treatment” ratio for an individual animal by the average “normalized to pre-treatment” ratio of all mice in the normal PBS control group.
substance,measurement,setting,value
AD04776: HBV RNAi agent duplex AM05850-AS/AM06150-SS (antisense UACCAAUUUAUGCCUACAGCC; sense GGCUGUAGGCAUAAAUUGGUA; chemistry not fully specified),Average HBsAg levels normalized to pre-treatment (day −1) and PBS control,"Day 8, 1.0 mg/kg",0.279 ± 0.057
same,Average HBsAg levels normalized to pre-treatment (day −1) and PBS control,"Day 8, 2.0 mg/kg",0.224 ± 0.018
same,Average HBsAg normalized to pre-treatment and PBS control,"Day 8, 2.0 mg/kg, Example 15",0.339 ± 0.076
same,Average HBsAg levels normalized to pre-treatment and PBS control (Group A used as control),Day 8,0.197 ± 0.081
same,Average HBsAg levels normalized to pre-treatment (day −1) and PBS control,"Day 8, 4.0 mg/kg",0.117 ± 0.069
same,Average HBsAg levels normalized to pre-treatment (day −1) and PBS control,"Day 15, 1.0 mg/kg",0.245 ± 0.032
same,Average HBsAg levels normalized to pre-treatment (day −1) and PBS control,"Day 15, 2.0 mg/kg",0.161 ± 0.009
same,Average HBsAg normalized to pre-treatment and PBS control,"Day 15, 2.0 mg/kg, Example 15",0.414 ± 0.126
same,Average HBsAg levels normalized to pre-treatment and PBS control (Group A used as control),Day 15,0.308 ± 0.138
same,Average HBsAg levels normalized to pre-treatment (day −1) and PBS control,"Day 15, 4.0 mg/kg",0.085 ± 0.039
same,Average HBsAg levels normalized to pre-treatment (day −1) and PBS control,"Day 22, 1.0 mg/kg",0.374 ± 0.121
same,Average HBsAg levels normalized to pre-treatment (day −1) and PBS control,"Day 22, 2.0 mg/kg",0.310 ± 0.016
same,Average HBsAg normalized to pre-treatment and PBS control,"Day 22, 2.0 mg/kg, Example 15",0.385 ± 0.067
same,Average HBsAg levels normalized to pre-treatment and PBS control (Group A used as control),Day 22,0.476 ± 0.156
same,Average HBsAg levels normalized to pre-treatment (day −1) and PBS control,"Day 22, 4.0 mg/kg",0.148 ± 0.045
same,Average HBsAg levels normalized to pre-treatment (day −1) and PBS control,"Day 29, 1.0 mg/kg",0.304
same,Average HBsAg levels normalized to pre-treatment (day −1) and PBS control,"Day 29, 2.0 mg/kg",0.482
same,Average HBsAg normalized to pre-treatment and PBS control,"Day 29, 2.0 mg/kg, Example 15",0.450 ± 0.075
same,Average HBsAg levels normalized to pre-treatment and PBS control (Group A used as control),Day 29,0.246 ± 0.081
same,Average HBsAg levels normalized to pre-treatment (day −1) and PBS control,"Day 29, 4.0 mg/kg",0.198
same,Average HBsAg normalized to pre-treatment and PBS control,"Day 36, 2.0 mg/kg, Example 15",0.617 ± 0.116
same,Average HBsAg levels normalized to pre-treatment and PBS control (Group A used as control),Day 36,0.244 ± 0.097
same,Average HBsAg normalized to pre-treatment and PBS control,"Day 43, 2.0 mg/kg, Example 15",0.643 ± 0.154
same,Average HBsAg levels normalized to pre-treatment and PBS control (Group A used as control),Day 43,0.179 ± 0.061
same,Average HBsAg normalized to pre-treatment and PBS control,"Day 50, 2.0 mg/kg, Example 15",0.665 ± 0.199
same,knockdown of HBsAg compared to PBS control,"Example 15, administered alone or in combination with AD04872, across each of the time points measured",significant knockdown of HBsAg
AD04982: HBV RNAi agent duplex AM06464-AS/AM06150-SS (antisense UACCAAUUUAUGCCUACAGCC; sense GGCUGUAGGCAUAAAUUGGUA; chemistry not fully specified),Average HBsAg levels normalized to pre-treatment (day −1) and PBS control,"Day 8, 1.0 mg/kg",0.519 ± 0.058
same,Average HBsAg levels normalized to pre-treatment (day −1) and PBS control,"Day 8, 2.0 mg/kg",0.342 ± 0.062
same,Average HBsAg levels normalized to pre-treatment (day −1) and PBS control,"Day 15, 1.0 mg/kg",0.375 ± 0.012
same,Average HBsAg levels normalized to pre-treatment (day −1) and PBS control,"Day 15, 2.0 mg/kg",0.255 ± 0.046
same,Average HBsAg levels normalized to pre-treatment (day −1) and PBS control,"Day 22, 1.0 mg/kg",0.422 ± 0.046
same,Average HBsAg levels normalized to pre-treatment (day −1) and PBS control,"Day 22, 2.0 mg/kg",0.272 ± 0.122
same,Average HBsAg levels normalized to pre-treatment (day −1) and PBS control,"Day 29, 1.0 mg/kg",0.525
same,Average HBsAg levels normalized to pre-treatment (day −1) and PBS control,"Day 29, 2.0 mg/kg",0.314
